Measured values as given in publication PMC5218480 (PLoS ONE, 2017).

System: MV-4-11 cells
Test: Gene expression microarray analysis (Affymetrix PrimeView) and GSEA
Format: cell-based, human
Design: RFU PODN (11730768_x_at) / Fold change /veh PODN (11730768_x_at) / RFU LINC00158 (11744669_a_at) / Fold change /veh LINC00158 (11744669_a_at) / RFU DUSP10 (11751237_a_at) / Fold change /veh DUSP10 (11751237_a_at) / RFU ID3 (11757404_x_at) / Fold change /veh ID3 (11757404_x_at) / RFU PLEKHG5 (11737974_s_at) / Fold change /veh PLEKHG5 (11737974_s_at) / RFU LRRC4B (11730491_at) / Fold change /veh LRRC4B (11730491_at) / RFU GIMAP4 (11747438_a_at) / Fold change /veh GIMAP4 (11747438_a_at) / RFU KRT8 (11758183_x_at) / Fold change /veh KRT8 (11758183_x_at) / RFU CNN1 (11734310_a_at) / Fold change /veh CNN1 (11734310_a_at) / RFU VPS37D (11726825_at) / Fold change /veh VPS37D (11726825_at) / RFU C10orf10 (11716522_x_at) / Fold change /veh C10orf10 (11716522_x_at) / RFU KIR2DL2 /// KIR2DL4 /// KIR2DL5A /// KIR2DL5B /// KIR2DS1 /// KIR2DS2 /// KIR2DS3 /// KIR2DS4 /// KIR3DL3 /// KIR3DL3 /// KIR3DS1 (11738374_at) / Fold change /veh KIR2DL2 /// KIR2DL4 /// KIR2DL5A /// KIR2DL5B /// KIR2DS1 /// KIR2DS2 /// KIR2DS3 /// KIR2DS4 /// KIR3DL3 /// KIR3DL3 /// KIR3DS1 (11738374_at) / RFU C1QL1 (11718748_at) / Fold change /veh C1QL1 (11718748_at) / RFU TMPRSS4 (11747572_a_at) / Fold change /veh TMPRSS4 (11747572_a_at) / RFU HAMP (11756126_x_at) / Fold change /veh HAMP (11756126_x_at) / RFU RNFT2 (11725882_a_at) / Fold change /veh RNFT2 (11725882_a_at) / RFU NR4A2 (11747474_a_at) / Fold change /veh NR4A2 (11747474_a_at) / RFU ABCC12 (11746883_a_at) / Fold change /veh ABCC12 (11746883_a_at) / RFU TMEM136 (11760407_x_at) / Fold change /veh TMEM136 (11760407_x_at) / RFU CLDN22 /// WWC2 (11732394_at) / Fold change /veh CLDN22 /// WWC2 (11732394_at) / RFU HLA-DPB1 (11760878_x_at) / Fold change /veh HLA-DPB1 (11760878_x_at) / RFU SPINT1 (11716480_a_at) / Fold change /veh SPINT1 (11716480_a_at) / RFU GAP43 (11754022_s_at) / Fold change /veh GAP43 (11754022_s_at) / RFU A4GNT (11735810_at) / Fold change /veh A4GNT (11735810_at) / RFU PRB3 (11715151_x_at) / Fold change /veh PRB3 (11715151_x_at) / RFU TUBB4B (11761932_at) / Fold change /veh TUBB4B (11761932_at) / RFU CAPN14 (11732068_a_at) / Fold change /veh CAPN14 (11732068_a_at) / RFU TMCC2 (11721928_a_at) / Fold change /veh TMCC2 (11721928_a_at) / RFU IRGQ (11745062_a_at) / Fold change /veh IRGQ (11745062_a_at) / RFU FAM174B (11720279_a_at) / Fold change /veh FAM174B (11720279_a_at) / RFU TMPRSS4 (11748680_a_at) / Fold change /veh TMPRSS4 (11748680_a_at) / RFU FAM212B (11763350_a_at) / Fold change /veh FAM212B (11763350_a_at) / RFU PLEKHG5 (11743358_a_at) / Fold change /veh PLEKHG5 (11743358_a_at) / RFU ZSCAN30 (11745921_a_at) / Fold change /veh ZSCAN30 (11745921_a_at) / RFU CMKLR1 (11741424_a_at) / Fold change /veh CMKLR1 (11741424_a_at) / RFU LOC101060620 /// MAPK8IP1 (11723275_at) / Fold change /veh LOC101060620 /// MAPK8IP1 (11723275_at) / RFU SPTSSB (11747773_x_at) / Fold change /veh SPTSSB (11747773_x_at) / RFU PRSS12 (11739890_at) / Fold change /veh PRSS12 (11739890_at) / RFU BIN1 (11741810_x_at) / Fold change /veh BIN1 (11741810_x_at) / RFU WNT11 (11732464_a_at) / Fold change /veh WNT11 (11732464_a_at) / RFU C10orf10 (11716521_a_at) / Fold change /veh C10orf10 (11716521_a_at) / RFU C5orf56 (11738089_at) / Fold change /veh C5orf56 (11738089_at) / RFU CYB561 (11721691_x_at) / Fold change /veh CYB561 (11721691_x_at) / RFU ANKRD19P (11752326_a_at) / Fold change /veh ANKRD19P (11752326_a_at) / RFU OR2T12 /// OR2T33 /// OR2T8 (11738714_s_at) / Fold change /veh OR2T12 /// OR2T33 /// OR2T8 (11738714_s_at) / RFU VCAN (11748164_a_at) / Fold change /veh VCAN (11748164_a_at) / RFU JSRP1 (11732532_at) / Fold change /veh JSRP1 (11732532_at) / RFU KRTAP10-11 (11738290_x_at) / Fold change /veh KRTAP10-11 (11738290_x_at) / RFU MYO3A (11730013_a_at) / Fold change /veh MYO3A (11730013_a_at) / RFU EBF3 (11725865_a_at) / Fold change /veh EBF3 (11725865_a_at) / RFU CAMK2N1 (11719241_x_at) / Fold change /veh CAMK2N1 (11719241_x_at) / RFU C5orf56 (11738088_a_at) / Fold change /veh C5orf56 (11738088_a_at) / RFU OLFML3 (11715873_a_at) / Fold change /veh OLFML3 (11715873_a_at) / RFU LOC100653217 /// NTM (11731650_a_at) / Fold change /veh LOC100653217 /// NTM (11731650_a_at) / RFU MAPK11 (11762145_a_at) / Fold change /veh MAPK11 (11762145_a_at) / RFU FIZ1 (11724087_x_at) / Fold change /veh FIZ1 (11724087_x_at) / RFU OASL (11726364_x_at) / Fold change /veh OASL (11726364_x_at) / RFU SOX15 (11748057_x_at) / Fold change /veh SOX15 (11748057_x_at) / RFU CD79A (11719716_a_at) / Fold change /veh CD79A (11719716_a_at) / RFU HIST1H1D (11736915_at) / Fold change /veh HIST1H1D (11736915_at) / RFU CASKIN2 (11723855_a_at) / Fold change /veh CASKIN2 (11723855_a_at) / RFU LOC730098 (11760151_x_at) / Fold change /veh LOC730098 (11760151_x_at) / RFU OR4N2 (11742367_at) / Fold change /veh OR4N2 (11742367_at) / RFU PRRT2 (11749266_a_at) / Fold change /veh PRRT2 (11749266_a_at) / RFU SNX32 (11753110_a_at) / Fold change /veh SNX32 (11753110_a_at) / RFU CDHR5 (11726645_a_at) / Fold change /veh CDHR5 (11726645_a_at) / RFU RCAN1 (11760418_a_at) / Fold change /veh RCAN1 (11760418_a_at) / RFU FAM167A (11723789_a_at) / Fold change /veh FAM167A (11723789_a_at) / RFU FAM26E (11764081_at) / Fold change /veh FAM26E (11764081_at) / RFU ISYNA1 (11749810_s_at) / Fold change /veh ISYNA1 (11749810_s_at) / RFU ACY1 (11761880_at) / Fold change /veh ACY1 (11761880_at) / RFU 11764098_at / Fold change /veh 11764098_at / RFU SAMD14 (11745864_x_at) / Fold change /veh SAMD14 (11745864_x_at) / RFU NPB (11741838_a_at) / Fold change /veh NPB (11741838_a_at) / RFU TMPRSS6 (11731388_a_at) / Fold change /veh TMPRSS6 (11731388_a_at) / RFU KRTAP10-2 (11738614_at) / Fold change /veh KRTAP10-2 (11738614_at) / RFU ARHGAP8 /// PRR5-ARHGAP8 (11727945_x_at) / Fold change /veh ARHGAP8 /// PRR5-ARHGAP8 (11727945_x_at) / RFU KRTAP5-7 /// NADSYN1 (11734609_at) / Fold change /veh KRTAP5-7 /// NADSYN1 (11734609_at) / RFU RASL12 (11751679_a_at) / Fold change /veh RASL12 (11751679_a_at) / RFU CDKN2B (11736163_a_at) / Fold change /veh CDKN2B (11736163_a_at) / RFU PRF1 (11729649_at) / Fold change /veh PRF1 (11729649_at) / RFU, ZNF638 /// ZNF638-IT1 / Fold change vs veh, ZNF638 /// ZNF638-IT1 / RFU, PANK3 / Fold change vs veh, PANK3 / RFU, SH3YL1 / Fold change vs veh, SH3YL1 / RFU, ZEB2 / Fold change vs veh, ZEB2 / RFU, NRIP1 / Fold change vs veh, NRIP1 / RFU, PTTG1IP / Fold change vs veh, PTTG1IP / RFU, CAPN2 / Fold change vs veh, CAPN2 / RFU, MED14 / Fold change vs veh, MED14 / RFU, SNORA58 / Fold change vs veh, SNORA58 / RFU, C1orf63 / Fold change vs veh, C1orf63 / RFU, LRRFIP1 / Fold change vs veh, LRRFIP1 / RFU, NDUFAF7 / Fold change vs veh, NDUFAF7 / RFU, SLC12A2 / Fold change vs veh, SLC12A2 / RFU, IBTK / Fold change vs veh, IBTK / RFU, ESF1 / Fold change vs veh, ESF1 / Fold change vs veh, TMEM50B / RFU, TAOK1 / Fold change vs veh, TAOK1 / RFU, ACBD3 / Fold change vs veh, ACBD3 / RFU, TMA16 / Fold change vs veh, TMA16 / RFU, RWDD3 / Fold change vs veh, RWDD3 / RFU, BCAT1 / Fold change vs veh, BCAT1 / RFU, EDEM3 / Fold change vs veh, EDEM3 / RFU, TMEM33 / Fold change vs veh, TMEM33 / RFU, WDR75 / Fold change vs veh, WDR75 / RFU, AHCTF1 / Fold change vs veh, AHCTF1 / RFU, TFRC / Fold change vs veh, TFRC / RFU, ZDHHC17 / Fold change vs veh, ZDHHC17 / RFU, NOM1 / Fold change vs veh, NOM1 / RFU, ARL8B / Fold change vs veh, ARL8B / RFU, ZBTB11 / Fold change vs veh, ZBTB11 / RFU, TAMM41 / Fold change vs veh, TAMM41 / RFU, KIAA1704 /// LOC100996395 / Fold change vs veh, KIAA1704 /// LOC100996395 / RFU, ING1 / Fold change vs veh, ING1 / RFU, TRMT61B / Fold change vs veh, TRMT61B / RFU, FUBP3 / Fold change vs veh, FUBP3 / RFU, TP53 / Fold change vs veh, TP53 / RFU, TNKS2 / Fold change vs veh, TNKS2 / RFU, ZFP14 / Fold change vs veh, ZFP14 / RFU, ACTR2 / Fold change vs veh, ACTR2 / RFU, PPP3R1 / Fold change vs veh, PPP3R1 / RFU, PIK3R1 / Fold change vs veh, PIK3R1 / RFU, HNRNPA1 / Fold change vs veh, HNRNPA1 / RFU, RNF170 / Fold change vs veh, RNF170 / RFU, ZNF28 / Fold change vs veh, ZNF28 / RFU, RNGTT / Fold change vs veh, RNGTT / RFU, OGT / Fold change vs veh, OGT / RFU, BRD1 / Fold change vs veh, BRD1 / RFU, MARS / Fold change vs veh, MARS / RFU, ZNF655 / Fold change vs veh, ZNF655 / RFU, FAHD1 / Fold change vs veh, FAHD1 / RFU, BDP1 / Fold change vs veh, BDP1 / RFU, LRRCC1 / Fold change vs veh, LRRCC1 / RFU, ARID1A / Fold change vs veh, ARID1A / RFU, ZNF146 / Fold change vs veh, ZNF146 / RFU, ZNF330 / Fold change vs veh, ZNF330 / RFU, GPN3 / Fold change vs veh, GPN3 / RFU, C9orf123 / Fold change vs veh, C9orf123 / RFU, N4BP2L2 / Fold change vs veh, N4BP2L2 / RFU, ARFIP1 / Fold change vs veh, ARFIP1 / RFU, FAM179B / Fold change vs veh, FAM179B / RFU, BCL10 / Fold change vs veh, BCL10 / RFU, UHRF1BP1L / Fold change vs veh, UHRF1BP1L / RFU, BET1 / Fold change vs veh, BET1 / RFU, CNOT2 / Fold change vs veh, CNOT2 / RFU, ZNF268 / Fold change vs veh, ZNF268 / Fold change vs veh, ZNF507 / RFU, DGCR2 / Fold change vs veh, DGCR2 / RFU, WDSUB1 / Fold change vs veh, WDSUB1 / Fold change vs veh, HSP90B1 /// MIR3652 / RFU, ADSS / Fold change vs veh, ADSS / RFU, GK / Fold change vs veh, GK / RFU, ZNF148 / Fold change vs veh, ZNF148 / RFU, TAF9 / Fold change vs veh, TAF9 / RFU, SLC1A5 / Fold change vs veh, SLC1A5 / RFU, SLMO2 / Fold change vs veh, SLMO2 / RFU, ABCC4 / Fold change vs veh, ABCC4 / RFU, LOC101060439 /// RAP1B / Fold change vs veh, LOC101060439 /// RAP1B / RFU, RFX7 / Fold change vs veh, RFX7 / RFU, GTPBP10 / Fold change vs veh, GTPBP10 / RFU, CNEP1R1 / Fold change vs veh, CNEP1R1 / RFU, BIVM-ERCC5 /// ERCC5 / Fold change vs veh, BIVM-ERCC5 /// ERCC5 / RFU, ILF3 / Fold change vs veh, ILF3 / RFU 11762660_at / Fold change /veh 11762660_at / RFU VCAN (11757783_s_at) / Fold change /veh VCAN (11757783_s_at) / RFU DDX43 (11728927_at) / Fold change /veh DDX43 (11728927_at) / RFU KRT8 (11758188_x_at) / Fold change /veh KRT8 (11758188_x_at) / RFU NKD1 (11759106_at) / Fold change /veh NKD1 (11759106_at) / RFU SRD5A1 (11742802_a_at) / Fold change /veh SRD5A1 (11742802_a_at) / RFU TPSAB1 /// TPSB2 (11721975_s_at) / Fold change /veh TPSAB1 /// TPSB2 (11721975_s_at) / RFU GSTM3 (11746129_a_at) / Fold change /veh GSTM3 (11746129_a_at) / RFU IL23R (11737362_x_at) / Fold change /veh IL23R (11737362_x_at) / RFU TMEM51 (11727254_a_at) / Fold change /veh TMEM51 (11727254_a_at) / RFU PIWIL2 (11732686_x_at) / Fold change /veh PIWIL2 (11732686_x_at) / RFU ORM1 (11744905_x_at) / Fold change /veh ORM1 (11744905_x_at) / RFU CCDC152 (11743942_at) / Fold change /veh CCDC152 (11743942_at) / RFU ECM1 (11717891_a_at) / Fold change /veh ECM1 (11717891_a_at) / RFU IL23R (11748794_a_at) / Fold change /veh IL23R (11748794_a_at) / RFU TNFAIP8L3 (11732012_x_at) / Fold change /veh TNFAIP8L3 (11732012_x_at) / RFU MBOAT4 (11741988_at) / Fold change /veh MBOAT4 (11741988_at) / RFU 11764193_at / Fold change /veh 11764193_at / RFU TMEM53 (11763286_at) / Fold change /veh TMEM53 (11763286_at) / RFU MAGEB2 (11727129_at) / Fold change /veh MAGEB2 (11727129_at) / RFU TMEM200A (11744735_a_at) / Fold change /veh TMEM200A (11744735_a_at) / RFU CCDC152 (11751479_a_at) / Fold change /veh CCDC152 (11751479_a_at) / RFU FAM211A (11726209_a_at) / Fold change /veh FAM211A (11726209_a_at) / RFU RGS16 (11746705_a_at) / Fold change /veh RGS16 (11746705_a_at) / RFU VCAN (11755009_s_at) / Fold change /veh VCAN (11755009_s_at) / RFU RHOB (11743442_s_at) / Fold change /veh RHOB (11743442_s_at) / RFU RGS16 (11720943_a_at) / Fold change /veh RGS16 (11720943_a_at) / RFU RGS16 (11720944_at) / Fold change /veh RGS16 (11720944_at) / RFU, VPS4B / Fold change vs veh, VPS4B / RFU, CREB1 / Fold change vs veh, CREB1 / RFU, DNAJC13 / Fold change vs veh, DNAJC13 / RFU, GNAQ / Fold change vs veh, GNAQ / RFU, CDK5R1 / Fold change vs veh, CDK5R1 / RFU, ZRANB3 / Fold change vs veh, ZRANB3 / RFU, CUL4A / Fold change vs veh, CUL4A / RFU, CCNY / Fold change vs veh, CCNY / RFU, UFL1 / Fold change vs veh, UFL1 / RFU, COG3 / Fold change vs veh, COG3 / RFU, DIAPH2 / Fold change vs veh, DIAPH2 / RFU, SKA2 / Fold change vs veh, SKA2 / RFU, AFF3 / Fold change vs veh, AFF3 / RFU, LMF1 / Fold change vs veh, LMF1 / RFU, IPO11 / Fold change vs veh, IPO11 / RFU, DFFB / Fold change vs veh, DFFB / RFU, FOXP1 / Fold change vs veh, FOXP1 / RFU, CARD8 / Fold change vs veh, CARD8 / RFU, STRN3 / Fold change vs veh, STRN3 / RFU, ADK / Fold change vs veh, ADK / RFU, RASSF2 / Fold change vs veh, RASSF2 / RFU, WIPF1 / Fold change vs veh, WIPF1 / RFU, LARP1B / Fold change vs veh, LARP1B / RFU, RASA1 / Fold change vs veh, RASA1 / RFU, RB1 / Fold change vs veh, RB1 / RFU, PPFIA1 / Fold change vs veh, PPFIA1 / RFU, MAT2A / Fold change vs veh, MAT2A / RFU, CCT5 / Fold change vs veh, CCT5 / RFU, WDR92 / Fold change vs veh, WDR92 / RFU, CUX1 / Fold change vs veh, CUX1 / RFU, TTC7A / Fold change vs veh, TTC7A / RFU, TMEM135 / Fold change vs veh, TMEM135 / RFU, DEPTOR / Fold change vs veh, DEPTOR / RFU, CPM / Fold change vs veh, CPM / RFU, DNAJB6 / Fold change vs veh, DNAJB6 / RFU, CACNA2D3 / Fold change vs veh, CACNA2D3 / RFU, DTX4 / Fold change vs veh, DTX4 / RFU, TFCP2 / Fold change vs veh, TFCP2 / RFU, GMCL1 /// GMCL1P1 / Fold change vs veh, GMCL1 /// GMCL1P1 / RFU, AEBP2 / Fold change vs veh, AEBP2 / RFU, SNHG1 /// SNORD22 /// SNORD25 /// SNORD26 /// SNORD27 /// SNORD28 /// SNORD29 /// SNORD31 / Fold change vs veh, SNHG1 /// SNORD22 /// SNORD25 /// SNORD26 /// SNORD27 /// SNORD28 /// SNORD29 /// SNORD31 / Fold change (Aza/veh), C12orf56 (ProbeSet 11735607_a_at) / Fold change (ACY-1035/veh), C12orf56 (ProbeSet 11735607_a_at) / Fold change (Aza/veh), FGFR1OP (ProbeSet 11751329_s_at) / Fold change (ACY-1035/veh), FGFR1OP (ProbeSet 11751329_s_at) / Fold change (Aza/veh), VPS36 (ProbeSet 11739960_a_at) / Fold change (ACY-1035/veh), VPS36 (ProbeSet 11739960_a_at) / RFU SYPL1 (11715823_x_at) / Fold change /veh SYPL1 (11715823_x_at) / RFU IGFBP7 (11715501_s_at) / Fold change /veh IGFBP7 (11715501_s_at) / RFU REEP3 (11722064_at) / Fold change /veh REEP3 (11722064_at) / RFU IGLL1 (11728026_x_at) / Fold change /veh IGLL1 (11728026_x_at): dose or concentration left out as unconfirmed
Conditions: ProbeSet 11730501_a_at; LIST D

Nc1ccc(-c2cccs2)cc1NC(=O)c1ccc2c(c1)cc(C1CC1)n2CCN1CCOCC1 [ACY-1035]
RFU, CACNA2D3: 202.11 RFU
